Assay results published in US20190216707A1, “COMPOSITION FOR PREVENTING HAIR LOSS AND PROMOTING HAIR GROWTH, COMPRISING PHYTOESTROGEN AS AN ACTIVE INGREDIENT” (STEMORE CO., LTD., priority 2016, published 2019).

How the values were obtained:
[1] = tested on: immortalized dermal papilla cells (I-DPCs); experiment: Proliferation of immortalized dermal papilla cells (Incucyte, phase object confluence); format: cell-based, Human; conditions: FIGS. 1A to 1D; for effect on the proliferation of I-DPCs (phase object confluence, %): 0.1 μM, 1 μM or 10 μM, cultured for 72 hours; for proliferation of I-DPCs: concentration of 1 μM to 10 μM
Experimental: Human-derived immortalized dermal papilla cells (I-DPCs; donated by Professor Sungyoung Kwan of the College of Medicine at Kyungpook National University; Shin, Seung-Hyun, et al. “Establishment and characterization of an immortalized human dermal papilla cell line.” BMB reports 44.8 (2011): 512-516.) were cultured in Follicle Dermal Papilla Cell Growth Medium supplemented with 10% fetal bovine serum […] and penicillin-streptomycin antibiotics for 3 days to prepare a dermal papilla cell line. On day 3 of culture, the cells cultured in the culture dish were transferred to a 96-well plate, and when the cells were attached to the bottom of each well, each well was treated with DO-10B, DO-14, DO-17, and DO-20 at a concentration of 10 μM and cultured for 48 hours.
In particular, the I-DP cell line was prepared by culturing under the same conditions as in Example <2-1>, and the cells were treated with DO-10B, DO-14, DO-17, and DO-20 at a concentration of 0.1 μM, 1 μM, or 10 μM in a cell culture medium, and then cultured for a total of 72 hours. At 0, 12, 24, 36, 48, 60, and 72 hours after the start of culture, the degree of saturation of cells attached to the bottom of each well (phase object confluence, %) was confirmed using the Incucyte System™.

C3H/HeNCrljOri mice = experiment: Hair growth promotion on the hair-removed back of mice; format: in vivo; conditions: PBS containing 1 μM compound subcutaneously injected, 2 weeks; for hair cycle induction / hair growth, visually confirmed, compared to the non-administered group: FIG. 2; for hair weight compared with the minoxidil-administered control / hair weight relative to the non-administered control: FIG. 3
From the text: In particular, to confirm the effects of DO-10B, DO-14, DO-17, and DO-20 on hair growth promotion when applied and subcutaneously administered, 6-week-old male C3H/HeNCrljOri mice were purchased and divided into a negative control, a positive control (minoxidil-treated group), and groups treated with DO-10B, DO-14, DO-17, and DO-20 to be used for experiments. To confirm a hair growth effect in the mice, when the mice became 6 weeks of age, first, the hair of the back of each mouse was removed using a clipper.
To confirm the effects of DO-10B, DO-14, DO-17, and DO-20 on hair growth promotion when subcutaneously injected, PBS containing 1 μM DO-10B, DO-14, DO-17, and DO-20 was subcutaneously injected into the hair-removed backs of mice at a daily cycle of 2 to 3 times, and the mice were raised for a total of 2 weeks. After the end of the rearing period, the hair of the back of each mouse was removed again using a mouse clipper, and the weight of the collected hair was measured to compare the hair weights of the non-administered group and the minoxidil-administered group.

Row | Compound | effect on the proliferation of I-DPCs (phase object confluence, %) [1] | proliferation of I-DPCs [1] | hair cycle induction (C3H/HeNCrljOri mice) | hair growth, visually confirmed, compared to the non-administered group (C3H/HeNCrljOri mice) | hair weight compared with the minoxidil-administered control (C3H/HeNCrljOri mice) | hair weight relative to the non-administered control (C3H/HeNCrljOri mice)
1 | violanone [DO-10B] | concentration-dependent manner | significantly promoted | induced to the anagen phase | significant hair growth | equal to or greater than that of the minoxidil-administered control | about two-fold or more
2 | (3R)-5′-methoxyvestiol [DO-14] | concentration-dependent manner | significantly promoted | induced to the anagen phase | significant hair growth | equal to or greater than that of the minoxidil-administered control | about two-fold or more
3 | COc1ccc2c(c1)OC1c3ccc(O)cc3OCC21 (stereo not drawn) [DO-20, 3-hydroxy-9-methoxypterocarpan] | concentration-dependent manner | significantly promoted | induced to the anagen phase | significant hair growth | equal to or greater than that of the minoxidil-administered control | about two-fold or more
4 | COc1cc2c(cc1O)[C@@H]1COc3cc(O)ccc3[C@@H]1O2 [DO-17, (6aR, 11aR)-3,8-dihydroxy-9-methoxypterocarpan] | concentration-dependent manner | significantly promoted | induced to the anagen phase | significant hair growth | equal to or greater than that of the minoxidil-administered control | about two-fold or more
